The source of these data is patent US8063012B2, “Neuroprotective peptide inhibitors of AP-1 signaling and uses therefor” (Phylogica Limited, priority 2006, dated 2011).

The conditions of series [1]: rabbit blood; cited from earlier work.
For series [2], the system named is primary cortical neuronal cultures. Put plainly: Glutamate excitotoxicity in primary cortical neuronal cultures, neuronal viability by MTS assay. Format: cell-based, rat. As to conditions: Sprague-Dawley, rat, 18 h. Here is the method:
Neurons were resuspended in Neurobasal (NB; Invitrogen) containing 2% B27 supplement (B27; Invitrogen). Before seeding, culture vessels comprising either a 96-well plastic plate or 24-well plastic plate with 13 mm glass coverslips (ProSciTech, Australia), were coated with poly-D-lysine (50 μg/mL; 70-150K; Sigma) and incubated overnight at room temperature. […] Neurons were plated to obtain approximately 10,000 viable neurons for each well of a 96-well plate, or 200,000 viable neurons per well of a 24-well plate, on day in vitro (DIV) […]. […] On DIV 4, one third of the culture medium was removed and replaced with fresh NB/2% B27 containing the mitotic inhibitor, cytosine arabinofuranoside (Sigma) at 1 μM concentration. On DIV 8, one half of the culture medium was replaced with NB/2% B27.
To induce glutamate excitotoxicity in the cortical neuronal cultures (96-well plate format), 50 μl of conditioned media containing 200 μM glutamate was added to culture wells containing 50 μl conditioned media (100 μM final glutamate concentration). Cultures were incubated at 37° C. in a CO2 incubator for 5 minutes, after which time the media was replaced with 100 μl of 50% NB/2% N2 and 50% balance salt solution (NB/N2:BSS).
Untreated and glutamate-treated control samples received media additions with and without glutamate respectively.
Eighteen hours after glutamate exposure, neuronal cultures were examined by light microscopy for qualitative assessment of neuronal damage. Neuronal viability was quantitatively measured by 3-(4,5,dimethyliazol-2-yl)-5-(3-carboxymethoxy-phenyl)-2-(4-sulfophenyl)-2H-tetrazolium salt (MTS) assay (Promega, Australia). The MTS assay measures the mitochondrial conversion of the tetrazolium salt to a water-soluble brown formazan salt, which is detected spectrophotometrically at 495 nm. MTS absorbance data was converted to reflect proportional cell viability relative to both the untreated and glutamate treated controls. […] All assays were performed with quadruplicate sister neuronal cultures repeated a minimum of four times independently.
On the technique in general: Formazan colour is commonly taken as a measure of viable cells.

The nature of a further series: in vivo. As to conditions: male, Sprague-Dawley, rat, iv, 3 mg/kg. On the procedure: Male Sprague-Dawley rats (276-310 g) were dosed with peptide by i.v injection via the jugular vein. The calculated dose for each animal was 3 mg/kg of body weight and each isoflurane anaesthetised animal received dosing volumes of 0.1 ml/100 g of body weight of a 3 mg/ml solution. The remaining dosing solutions were subjected to a similar protocol as the solutions that were administered to the animals and were collected pre-labeled Maxymum Recovery (Axygen Scientific) low binding tubes, ready for quantification. Blood samples (0.2 ml) were collected just prior to dosing (pre-dose) and at various time points post-dosing according to the experimental schedule. Blood samples were collected from the jugular vein from the anaesthetized and transferred into 0.5 ml pre-labeled EDTA micro-centrifuge tubes and placed on ice. The tubes were then centrifuged for 5 mins at 3,000 RPM in a bench top microcentrifuge (4° C.). The plasma was transferred to pre-labeled 1.7 ml tubes, stored in a −80° C. freezer prior to analysis by LC-MS.
Analysis: Sample Preparation: 50 μl of plasma was added to 150 μl of precipitating solvent (75% acetonitrile/25% water+2% formic acid) and vortexed for 15 sec. The solution was centrifuged at 11,000 rpm at 4° C. for 5 mins. 100 μl of the supernatant was transferred to a HPLC vial for quantification. […]

A further series can be described thus: in vitro. It counts as in vitro ADME. As to conditions: human, plasma. Here is the method: A stock solution of 200 μg/ml of peptide in PBS was diluted into 1.5 ml of human plasma or PBS to achieve a final concentration of 10 μg/ml. Of this solution, 50 μl was then dispensed into 200 μl Max Recovery tubes (Axygen Scientific) in triplicate for each time point needed in the study. The tubes were incubated at 37° C. and at the appropriate time point, they were removed from the incubator and 150 μl of extraction solution (75% acetonitrile/25% water+2% formic acid) was added. The tubes were vortexed for 15 sec and then centrifuged at 11,000 RPM for 5 mins at 4° C. Then, 100 μl of the supernatant was transferred into HPLC vials for analysis.
A fixed mobile phase was used so that all of the different charged species of peptide would elute at the same time, allowing a mass measurement of non-degraded material. Injection volume: 10 μl; Column: Phenomenex Aqua C18 5 μM 150 mm×4.6 mm; Flow: 0.8 ml/min; 85% Mobile phase A: 4% formic acid in nanopure water; 15% Mobile phase B: acetonitrile; RT: 1.3 minutes; Stop time: 3.0 minutes. Mass Spectrometer: MS-03 LC/MSD Trap XCT Ultra.

Non-standard residues stand in square brackets, D forms with d. Residues, ends and D or L forms follow the SMILES beside them.

On to tissue plasminogen activator [tPA], for which the “in vivo half life” value in series [1] is “a few minutes”.
By half-life is commonly meant the time in which the quantity being followed falls by half. Regarding `CC[C@@H](C)[C@@H](NC(=O)[C@@H](CCC(=O)O)NC(=O)[C@@H](CO)NC(=O)[C@@H](CO)NC(=O)[C@@H](CO)NC(=O)[C@@H](CCCCN)NC(=O)[C@@H](CCCNC(=N)N)NC(=O)[C@@H](CCC(=O)O)NC(=O)[C@H](N)CCCNC(=N)N)C(=O)NCC(=O)NCC(=O)N[C@H](CO)C(=O)N[C@H](CCCNC(=N)N)C(=O)N[C@@H](C(=O)N[C@H](CO)C(=O)N[C@H](CCC(N)=O)C(=O)N[C@H](Cc1ccc(O)cc1)C(=O)N[C@H](C)C(=O)NCC(=O)N[C@H](CCCNC(=N)N)C(=O)N[C@H](CCCNC(=N)N)C(=O)N[C@H](CCCNC(=N)N)C(=O)N[C@H](CCC(N)=O)C(=O)N[C@H](CCCNC(=N)N)C(=O)N[C@H](CCCNC(=N)N)C(=O)N[C@H](CCCCN)C(=O)N[C@H](CCCCN)C(=O)N[C@H](CCCNC(=N)N)C(=O)NCC(=O)O)[C@H](C)CC` [PYC35D-TAT] (H-[dR][dE][dR][dK][dS][dS][dS][dE][dI]GG[dS][dR][dI][dS][dQ][dY][dA]G[dR][dR][dR][dQ][dR][dR][dK][dK][dR]G-OH; N-terminus and C-terminus assumed), the “neuronal viability following glutamate excitotoxicity” value in series [2] (5 μM) stood at 59%. In addition, the half-life in “in vivo” came to 35 min. The same molecule had a half-life at 10 μg/ml in “in vitro” of more than 720 min.
For `CC[C@@H](C)[C@@H](NC(=O)[C@@H](CCCCN)NC(=O)[C@H]1CCCN1)C(=O)N[C@H](CO)C(=O)N[C@H](CCC(N)=O)C(=O)N[C@H](Cc1ccc(O)cc1)C(=O)NCC(=O)N[C@H](CCC(N)=O)C(=O)N[C@H](CCCNC(=N)N)C(=O)N[C@H](CCCNC(=N)N)C(=O)N[C@H](CCCNC(=N)N)C(=O)NCC(=O)N[C@H](CCC(N)=O)C(=O)N[C@H](CC(C)C)C(=O)NCC(=O)NCC(=O)N[C@H](CCCNC(=N)N)C(=O)N[C@H](CCCNC(=N)N)C(=O)N[C@H](CCCNC(=N)N)C(=O)N[C@H](CCC(N)=O)C(=O)N[C@H](CCCNC(=N)N)C(=O)N[C@H](CCCNC(=N)N)C(=O)N[C@H](CCCCN)C(=O)N[C@H](CCCCN)C(=O)N[C@H](CCCNC(=N)N)C(=O)NCC(=O)O` [PYC36D-TAT] (H-[dP][dK][dI][dS][dQ][dY]G[dQ][dR][dR][dR]G[dQ][dL]GG[dR][dR][dR][dQ][dR][dR][dK][dK][dR]G-OH; N-terminus and C-terminus assumed), the entries for the “neuronal viability following glutamate excitotoxicity” value in series [2] (1 μM) and in series [2] (5 μM) were 44% and 82%, respectively. The same molecule registered a half-life in “in vivo” of 100 min. The molecule also displayed a half-life at 10 μg/ml in the series “in vitro” of more than 720 min.
